Experimental data: patent US12661410B2, “Compounds for targeted degradation of RET” (C4 Therapeutics, Inc., priority 2020, dated 2026)
Residue numbers refer to the chain shown, from its start.

Tests used:
RET (658-1114) = biological target: T1, RET (658-1114) (Homo sapiens, UniProt P07949); assay: HiBiT-Degradation, RET wild-type degradation assay (Nano-Glo HiBiT Lytic), 293T.144 cells; format: cell-based; settings: for Emax / DC50: 6.0 hours; for Emax: % remaining protein, read-out: 293T.144 RET (658-1114) 6.0 hours (Emax); for DC50: half-maximal degradation concentration, read-out: 293T.144 RET (658-1114) 6.0 hours (DC50)
T1 construct: 658-1114; expressed in transfected cells; host or cells: 293T.144 (293T cells, generated in-house)
T1 sequence (P07949 658-1114): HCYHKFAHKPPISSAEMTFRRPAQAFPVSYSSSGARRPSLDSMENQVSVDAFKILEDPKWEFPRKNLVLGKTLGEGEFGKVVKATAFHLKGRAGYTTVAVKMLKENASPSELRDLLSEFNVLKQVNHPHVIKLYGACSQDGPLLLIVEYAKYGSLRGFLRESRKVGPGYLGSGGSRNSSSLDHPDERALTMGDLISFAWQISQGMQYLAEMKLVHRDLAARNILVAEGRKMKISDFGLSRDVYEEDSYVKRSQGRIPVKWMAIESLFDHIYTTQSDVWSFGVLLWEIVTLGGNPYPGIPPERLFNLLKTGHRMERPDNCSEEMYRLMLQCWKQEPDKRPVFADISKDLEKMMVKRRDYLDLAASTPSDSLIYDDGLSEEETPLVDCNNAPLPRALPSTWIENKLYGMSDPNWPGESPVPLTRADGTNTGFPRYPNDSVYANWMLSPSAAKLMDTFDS
How it was run: (§1)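 Engineered 293T cells carry a HiBiT tag on the RET kinase domain, either wild type (line 293T.144) or G810R (line 293T.165). Compounds act for 6 h across a 10 μM-top, half-log 11-point range. Lytic HiBiT luminescence gives remaining protein, fitted for DC50 and Emax.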

RET(KD: 658-1114 G810R) = biological target: T2, RET(KD: 658-1114 G810R) (Homo sapiens, UniProt P07949, G810R); assay: HiBiT-Degradation, RET G810R degradation assay (Nano-Glo HiBiT Lytic), 293T.165 cells; format: cell-based; settings: for Emax / DC50: 6.0 hours; for Emax: % remaining protein, read-out: 293T.165 RET(KD: 658-1114 G810R) 6.0 hours (Emax); for DC50: half-maximal degradation concentration, read-out: 293T.165 RET(KD: 658-1114 G810R) 6.0 hours (DC50)
T2 construct: 658-1114; expressed in transfected cells; host or cells: 293T.165 (293T cells, generated in-house)
T2 sequence (P07949 658-1114 G810R): T1 sequence (P07949 658-1114) with G153R
How it was run: as §1

Row | 293T.144 RET (658-1114) 6.0 hours (IP) [nM] (RET (658-1114)) | Emax (RET (658-1114)) | DC50 (RET (658-1114)) | 293T.165 RET(KD: 658-1114 G810R) 6.0 hours (IP) [nM] (RET(KD: 658-1114 G810R)) | Emax (RET(KD: 658-1114 G810R)) | DC50 (RET(KD: 658-1114 G810R)) | SMILES
1 | ++++ (<50 nM = ++++) | < 50% | < 50 nM | ++++ (<50 nM = ++++) | < 50% | < 50 nM | CCC1(C(=O)NC2CCC2)CCN(c2ccc(-c3nc(-c4cnn([C@H]5C[C@](F)(CN6CCN(c7ccc(N[C@H]8CCC(=O)NC8=O)cc7F)CC6)C5)c4)cn4ncc(C#N)c34)cn2)CC1 [Compound 186, 1-[5-[3-cyano-6-[1-[3-[[4-[4-[[(3S)-2,6-dioxo-3-piperidyl]amino]-2-fluoro-phenyl]piperazin-1-yl]methyl]-3-fluoro-cyclobutyl]pyrazol-4-yl]pyrazolo[1,5-a]pyrazin-4-yl]-2-pyridyl]-N-cyclobutyl-4-ethyl-piperidine-4-carboxamide]
2 | ++++ (<50 nM = ++++) | < 30% | < 50 nM | ++++ (<50 nM = ++++) | < 30% | < 50 nM | CCC1(C(=O)NC2CCC2)CCN(c2ccc(-c3nc(-c4cnn([C@H]5C[C@](F)(CN6CCN(c7ccc(N[C@@H]8CCC(=O)NC8=O)cc7F)CC6)C5)c4)cn4ncc(C#N)c34)cn2)CC1 [Compound 187, 1-[5-[3-cyano-6-[1-[3-[[4-[4-[[(3R)-2,6-dioxo-3-piperidyl]amino]-2-fluoro-phenyl]piperazin-1-yl]methyl]-3-fluoro-cyclobutyl]pyrazol-4-yl]pyrazolo[1,5-a]pyrazin-4-yl]-2-pyridyl]-N-cyclobutyl-4-ethyl-piperidine-4-carboxamide]
3 | ++++ (<50 nM = ++++) | < 30% | < 50 nM | ++++ (<50 nM = ++++) | < 50% | < 50 nM | CCC1(C(=O)NC2CCC2)CCN(c2ccc(-c3nc(-c4cnn([C@H]5C[C@H](CN6CCN(c7ccc(N[C@H]8CCC(=O)NC8=O)cc7F)CC6)C5)c4)cn4ncc(C#N)c34)cn2)CC1 [Compound 188, 1-[5-[3-cyano-6-[1-[3-[[4-[4-[[(3S)-2,6-dioxo-3-piperidyl]amino]-2-fluoro-phenyl]piperazin-1-yl]methyl]cyclobutyl]pyrazol-4-yl]pyrazolo[1,5-a]pyrazin-4-yl]-2-pyridyl]-N-cyclobutyl-4-ethyl-piperidine-4-carboxamide]
4 | ++++ (<50 nM = ++++) | < 30% | < 50 nM | ++++ (<50 nM = ++++) | < 30% | < 100 nM | CCC1(C(=O)NC2CCC2)CCN(c2ccc(-c3nc(-c4cnn([C@H]5CC[C@H](CN6CCN(c7ccc(N[C@H]8CCC(=O)NC8=O)cc7F)CC6)CC5)c4)cn4ncc(C#N)c34)cn2)CC1 [Compound 189, 1-[5-[3-cyano-6-[1-[4-[[4-[4-[[(3S)-2,6-dioxo-3-piperidyl]amino]-2-fluoro-phenyl]piperazin-1-yl]methyl]cyclohexyl]pyrazol-4-yl]pyrazolo[1,5-a]pyrazin-4-yl]-2-pyridyl]-N-cyclobutyl-4-ethyl-piperidine-4-carboxamide]
5 | ++++ (<50 nM = ++++) | < 30% | < 50 nM | ++++ (<50 nM = ++++) | < 30% | < 100 nM | CCC1(C(=O)NC2CCC2)CCN(c2ccc(-c3nc(-c4cnn([C@H]5CC[C@H](CN6CCN(c7ccc(N[C@@H]8CCC(=O)NC8=O)cc7F)CC6)CC5)c4)cn4ncc(C#N)c34)cn2)CC1 [Compound 190, 1-[5-[3-cyano-6-[1-[4-[[4-[4-[[(3R)-2,6-dioxo-3-piperidyl]amino]-2-fluoro-phenyl]piperazin-1-yl]methyl]cyclohexyl]pyrazol-4-yl]pyrazolo[1,5-a]pyrazin-4-yl]-2-pyridyl]-N-cyclobutyl-4-ethyl-piperidine-4-carboxamide]
